Legend:
HT29 = test: NCI-60 one-dose screen, HT29; type: cell-based; conditions: Homo sapiens, HT-29; HT29, colon cancer; single dose 10 μM; read-out: Growth inhibition %
NCI-H322M = test: NCI-60 one-dose screen, NCI-H322M; type: cell-based; conditions: Homo sapiens, non-small cell lung cancer, single dose 10 μM, read-out: Growth inhibition %
CCRF-CEM = test: NCI-60 one-dose screen, CCRF-CEM; type: cell-based; conditions: Homo sapiens, leukaemia, single dose 10 μM, read-out: Growth inhibition %
HOP-92 = test: NCI-60 one-dose screen, HOP-92; type: cell-based; conditions: Homo sapiens; HOP-92, non-small cell lung cancer; single dose 10 μM; read-out: Growth inhibition %
NCI/ADR-RES = test: NCI-60 one-dose screen, NCI/ADR-RES; type: cell-based; conditions: Homo sapiens, ovarian cancer, single dose 10 μM, read-out: Growth inhibition %
UACC-257 = test: NCI-60 one-dose screen, UACC-257; type: cell-based; conditions: Homo sapiens; UACC-257, melanoma; single dose 10 μM; read-out: Growth inhibition %
OVCAR-3 = test: NCI-60 one-dose screen, OVCAR-3; type: cell-based; conditions: Homo sapiens; OVCAR-3, ovarian cancer; single dose 10 μM; read-out: Growth inhibition %
TK-10 = test: NCI-60 one-dose screen, TK-10; type: cell-based; conditions: Homo sapiens; TK-10, renal cancer; single dose 10 μM; read-out: Growth inhibition %
786-0 = test: NCI-60 one-dose screen, 786-0; type: cell-based; conditions: Homo sapiens; 786-0, renal cancer; single dose 10 μM; read-out: Growth inhibition %
MCF-7 = test: NCI-60 one-dose screen, MCF-7; type: cell-based; conditions: Homo sapiens, MCF7; MCF-7, breast cancer; single dose 10 μM; read-out: Growth inhibition %
SW-620 = test: NCI-60 one-dose screen, SW-620; type: cell-based; conditions: Homo sapiens; SW-620, colon cancer; single dose 10 μM; read-out: Growth inhibition %
K-562 = test: NCI-60 one-dose screen, K-562; type: cell-based; conditions: Homo sapiens, K562; K-562, leukaemia; single dose 10 μM; read-out: Growth inhibition %
NCI-H522 = test: NCI-60 one-dose screen, NCI-H522; type: cell-based; conditions: Homo sapiens; NCI-H522, non-small cell lung cancer; single dose 10 μM; read-out: Growth inhibition %
EKVX = test: NCI-60 one-dose screen, EKVX; type: cell-based; conditions: Homo sapiens, non-small cell lung cancer, single dose 10 μM, read-out: Growth inhibition %
DU-145 = test: NCI-60 one-dose screen, DU-145; type: cell-based; conditions: Homo sapiens; DU-145, prostate cancer; single dose 10 μM; read-out: Growth inhibition %
SK-MEL-5 = test: NCI-60 one-dose screen, SK-MEL-5; type: cell-based; conditions: Homo sapiens; SK-MEL-5, melanoma; single dose 10 μM; read-out: Growth inhibition %
HS 578 T = test: NCI-60 one-dose screen, HS 578 T; type: cell-based; conditions: Homo sapiens, breast cancer, single dose 10 μM, read-out: Growth inhibition %
HOP-62 = test: NCI-60 one-dose screen, HOP-62; type: cell-based; conditions: Homo sapiens; HOP-62, non-small cell lung cancer; single dose 10 μM; read-out: Growth inhibition %
MALME-3M = test: NCI-60 one-dose screen, MALME-3M; type: cell-based; conditions: Homo sapiens, melanoma, single dose 10 μM, read-out: Growth inhibition %
PC-3 = test: NCI-60 one-dose screen, PC-3; type: cell-based; conditions: Homo sapiens; PC-3, prostate cancer; single dose 10 μM; read-out: Growth inhibition %
SK-OV-3 = test: NCI-60 one-dose screen, SK-OV-3; type: cell-based; conditions: Homo sapiens; SK-OV-3, ovarian cancer; single dose 10 μM; read-out: Growth inhibition %
MDA-MB-468 = test: NCI-60 one-dose screen, MDA-MB-468; type: cell-based; conditions: Homo sapiens; MDA-MB-468, breast cancer; single dose 10 μM; read-out: Growth inhibition %
UO-31 = test: NCI-60 one-dose screen, UO-31; type: cell-based; conditions: Homo sapiens; UO-31, renal cancer; single dose 10 μM; read-out: Growth inhibition %
HCT-15 = test: NCI-60 one-dose screen, HCT-15; type: cell-based; conditions: Homo sapiens; HCT-15, colon cancer; single dose 10 μM; read-out: Growth inhibition %
SF-295 = test: NCI-60 one-dose screen, SF-295; type: cell-based; conditions: Homo sapiens; SF-295, CNS cancer; single dose 10 μM; read-out: Growth inhibition %
KM12 = test: NCI-60 one-dose screen, KM12; type: cell-based; conditions: Homo sapiens; KM12, colon cancer; single dose 10 μM; read-out: Growth inhibition %
UACC-62 = test: NCI-60 one-dose screen, UACC-62; type: cell-based; conditions: Homo sapiens; UACC-62, melanoma; single dose 10 μM; read-out: Growth inhibition %
RPMI-8226 = test: NCI-60 one-dose screen, RPMI-8226; type: cell-based; conditions: Homo sapiens; RPMI-8226, leukaemia; single dose 10 μM; read-out: Growth inhibition %
U251 = test: NCI-60 one-dose screen, U251; type: cell-based; conditions: Homo sapiens, U-251; U251, CNS cancer; single dose 10 μM; read-out: Growth inhibition %
ACHN = test: NCI-60 one-dose screen, ACHN; type: cell-based; conditions: Homo sapiens, renal cancer, single dose 10 μM, read-out: Growth inhibition %
LOX IMVI = test: NCI-60 one-dose screen, LOX IMVI; type: cell-based; conditions: Homo sapiens, melanoma, single dose 10 μM, read-out: Growth inhibition %
SF-268 = test: NCI-60 one-dose screen, SF-268; type: cell-based; conditions: Homo sapiens; SF-268, CNS cancer; single dose 10 μM; read-out: Growth inhibition %
SR = test: NCI-60 one-dose screen, SR; type: cell-based; conditions: Homo sapiens, leukaemia, single dose 10 μM, read-out: Growth inhibition %
MOLT-4 = test: NCI-60 one-dose screen, MOLT-4; type: cell-based; conditions: Homo sapiens; MOLT-4, leukaemia; single dose 10 μM; read-out: Growth inhibition %

SMILES	inhibition at 10 µM (HT29) [%]	inhibition at 10 µM (NCI-H322M) [%]	inhibition at 10 µM (CCRF-CEM) [%]	inhibition at 10 µM (HOP-92) [%]	inhibition at 10 µM (NCI/ADR-RES) [%]	inhibition at 10 µM (UACC-257) [%]	inhibition at 10 µM (OVCAR-3) [%]	inhibition at 10 µM (TK-10) [%]	inhibition at 10 µM (786-0) [%]	inhibition at 10 µM (MCF-7) [%]	inhibition at 10 µM (SW-620) [%]	inhibition at 10 µM (K-562) [%]	inhibition at 10 µM (NCI-H522) [%]	inhibition at 10 µM (EKVX) [%]	inhibition at 10 µM (DU-145) [%]	inhibition at 10 µM (SK-MEL-5) [%]	inhibition at 10 µM (HS 578 T) [%]	inhibition at 10 µM (HOP-62) [%]	inhibition at 10 µM (MALME-3M) [%]	inhibition at 10 µM (PC-3) [%]	other results
O=C(Cc1ccccc1)NNC(=O)N1c2ccccc2C=Cc2ccccc21 [Compound 4g, N′-(2-Phenylacetyl)-5H-dibenzo[b,f]azepine-5-carbohydrazide]	< 10	< 10	< 10	< 10	< 10	< 10	< 10	< 10	< 10	< 10	< 10	< 10	< 10	13.8	< 10	< 10	< 10	< 10	< 10	< 10	inhibition at 10 µM (SK-OV-3): < 10%; inhibition at 10 µM (MDA-MB-468): < 10%; inhibition at 10 µM (UO-31): < 10%; inhibition at 10 µM (HCT-15): < 10%; inhibition at 10 µM (SF-295): < 10%; inhibition at 10 µM (KM12): < 10%; inhibition at 10 µM (UACC-62): < 10%; melting point: 134 to 136 °C; inhibition at 10 µM (RPMI-8226): < 10%; inhibition at 10 µM (U251): < 10%; inhibition at 10 µM (ACHN): < 10%; inhibition at 10 µM (LOX IMVI): < 10%; inhibition at 10 µM (SF-268): < 10%; inhibition at 10 µM (SR): < 10%; inhibition at 10 µM (MOLT-4): < 10%
C1=Cc2ccccc2N(c2nnc(-c3ccccc3)o2)c2ccccc21 [Compound 5a, 2-(5 h-Dibenzo[b,f]azepin-5-yl)-5-phenyl-1,3,4-oxadiazole]	< 10	50.2	26.1	18.3	< 10	13.6	< 10	16.1	20	14.4	< 10	32.2	< 10	< 10	12.4	< 10	< 10	15.3	< 10	< 10	inhibition at 10 µM (SK-OV-3): < 10%; inhibition at 10 µM (MDA-MB-468): 26.1%; inhibition at 10 µM (UO-31): 39.4%; inhibition at 10 µM (HCT-15): < 10%; inhibition at 10 µM (SF-295): < 10%; inhibition at 10 µM (KM12): < 10%; inhibition at 10 µM (UACC-62): < 10%; melting point: 209 to 211 °C; inhibition at 10 µM (RPMI-8226): 67.7%; inhibition at 10 µM (U251): 20.1%; inhibition at 10 µM (ACHN): 16.7%; inhibition at 10 µM (LOX IMVI): < 10%; inhibition at 10 µM (SF-268): < 10%; inhibition at 10 µM (SR): < 10%; inhibition at 10 µM (MOLT-4): 16.5%
Brc1ccc(-c2nnc(N3c4ccccc4C=Cc4ccccc43)o2)cc1 [Compound 5b, 2-(4-Bromophenyl)-5-(5H-dibenzo[b,f]azepin-5-yl)-1,3,4-oxadiazole]	18.4	< 10	37.3	33.5	23.4	< 10	< 10	< 10	11.3	30.5	< 10	54.5	26.3	27.6	< 10	53.2	14.4	22.7	< 10	48.5	inhibition at 10 µM (SK-OV-3): < 10%; inhibition at 10 µM (MDA-MB-468): 17.8%; inhibition at 10 µM (UO-31): 33.5%; inhibition at 10 µM (HCT-15): 66.5%; inhibition at 10 µM (SF-295): 30.4%; inhibition at 10 µM (KM12): 21.4%; inhibition at 10 µM (UACC-62): 32.2%; melting point: 185 to 187 °C; inhibition at 10 µM (RPMI-8226): 17.5%; inhibition at 10 µM (U251): 47%; inhibition at 10 µM (ACHN): 24.8%; inhibition at 10 µM (LOX IMVI): 38.8%; inhibition at 10 µM (SF-268): 24.7%; inhibition at 10 µM (SR): 73%; inhibition at 10 µM (MOLT-4): 35.6%

Source: paper PMC9848257, “Design and synthesis of novel rigid dibenzo[b,f]azepines through ring closure technique as promising anticancer candidates against leukaemia and acting as selective topoisomerase II inhibitors and DNA intercalators” (Journal of Enzyme Inhibition and Medicinal Chemistry, 2023)
